Data from patent US12281225B2, “Process for preparing stable polymers containing vinylimidazole” (BASF SE, priority 2018, dated 2025).

What was measured:
[1] = Analysis of active substance: preservative concentration before and after storage in VI-containing polymer solution; format: physicochemical; details: for active-substance concentration, 0 d, RT: before storage; for active-substance concentration, 14 d, 40° C.: storage 14 d at 40° C.; for active-substance concentration, 28 d, 40° C.: storage 28 d at 40° C.; for active-substance concentration, 60 d 40° C.: storage 60 d at 40° C.
In short: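 Preservatives (MIT, BIT, CMIT, OIT, DCOIT, iodopropynyl butyl carbamate) in aqueous vinylpyrrolidone–vinylimidazole copolymer solution quantified after dilution by isocratic RP18 chromatography with UV detection, using an acid-methanol eluent.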

[2] = Iodine color number according to DIN 6162:2014-09; format: physicochemical
[3] = system: Bacteria: Escherichia coli, Staphylococcus aureus, Pseudomonas aeruginosa, Pseudomonas putida, Burkholderia cepacia, Alcaligenes faecalis; test: Preservation test with periodic inoculation, bacteria assessment; format: cell-based; details: for Start sample measurement, bact. assess., 4th inoculation: freshly formulated; for 60 d 40° C., bact. assess., 4th inoculation: sample stored 60 d at 40° C.
In short: (§1)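 Polymer samples (25 g) containing preservative were inoculated weekly, four times, with 10^9/ml bacterial or yeast mixtures (0.5 ml). Weekly streaks on agar were scored semiquantitatively (−− to ++) after 3 days at 25 °C, on fresh samples and on samples stored 60 days at 40 °C.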

[4] = system: Yeast: Candida albicans, Candida valida, Rhodotorula rura, Saccharomyces cerevisiae; test: Preservation test with periodic inoculation, yeast assessment; format: cell-based; details: sample stored 60 d at 40° C.
In short: as §1

[5] = Polymer P5 (HP56) with stabilizer

Cn1sccc1=O [MIT, methyl-4-isothiazolin-3-one]
active-substance concentration, 0 d, RT ([1]; in Polymer P1): 250 ppm
active-substance concentration, 14 d, 40° C. ([1]; in Polymer P1): 217 ppm
active-substance concentration, 28 d, 40° C. ([1]; in Polymer P1): 156 ppm
active-substance concentration, 60 d 40° C. ([1]; in Polymer P1): 131 ppm
active-substance concentration, 0 d, RT ([1]; in Polymer P2): 250 ppm
active-substance concentration, 14 d, 40° C. ([1]; in Polymer P2): 181 ppm
active-substance concentration, 28 d, 40° C. ([1]; in Polymer P2): 139 ppm
active-substance concentration, 60 d 40° C. ([1]; in Polymer P2): 116 ppm
active-substance concentration, 0 d, RT ([1]; in Polymer P3): 250 ppm
active-substance concentration, 14 d, 40° C. ([1]; in Polymer P3): 171 ppm
active-substance concentration, 28 d, 40° C. ([1]; in Polymer P3): 140 ppm
active-substance concentration, 60 d 40° C. ([1]; in Polymer P3): 122 ppm
active-substance concentration, 0 d, RT ([1]; in Polymer P4): 250 ppm
active-substance concentration, 14 d, 40° C. ([1]; in Polymer P4): 164 ppm
active-substance concentration, 28 d, 40° C. ([1]; in Polymer P4): 136 ppm
active-substance concentration, 60 d 40° C. ([1]; in Polymer P4): 113 ppm
active-substance concentration, 0 d, RT ([1]; in Polymer P5 (HP56)): 250 ppm
active-substance concentration, 14 d, 40° C. ([1]; in Polymer P5 (HP56)): 151 ppm
active-substance concentration, 28 d, 40° C. ([1]; in Polymer P5 (HP56)): 119 ppm
active-substance concentration, 60 d 40° C. ([1]; in Polymer P5 (HP56)): 94 ppm
active-substance concentration, 0 d, RT ([1]; in Polymer P6): 250 ppm
active-substance concentration, 14 d, 40° C. ([1]; in Polymer P6): 143 ppm
active-substance concentration, 28 d, 40° C. ([1]; in Polymer P6): 117 ppm
active-substance concentration, 60 d 40° C. ([1]; in Polymer P6): 87 ppm
active-substance concentration, 0 d, RT ([1]; in Polymer P7): 250 ppm
active-substance concentration, 14 d, 40° C. ([1]; in Polymer P7): 149 ppm
active-substance concentration, 28 d, 40° C. ([1]; in Polymer P7): 123 ppm
active-substance concentration, 60 d 40° C. ([1]; in Polymer P7): 91 ppm
active-substance concentration, 0 d, RT ([1]; in Polymer P8): 250 ppm
active-substance concentration, 14 d, 40° C. ([1]; in Polymer P8): 151 ppm
active-substance concentration, 28 d, 40° C. ([1]; in Polymer P8): 119 ppm
active-substance concentration, 60 d 40° C. ([1]; in Polymer P8): 94 ppm
active-substance concentration, 0 d, RT ([1]; in Polymer P9): 250 ppm
active-substance concentration, 14 d, 40° C. ([1]; in Polymer P9): 131 ppm
active-substance concentration, 28 d, 40° C. ([1]; in Polymer P9): 98 ppm
active-substance concentration, 60 d 40° C. ([1]; in Polymer P9): 80 ppm
Iodine color number, 60 d 40° C. ([2]; Polymer P1 with stabilizer): 5.5
Iodine color number, start ([2]; Polymer P1 with stabilizer): 2.5
Iodine color number, 60 d 40° C. ([2]; Polymer P2 with stabilizer): 5.8
Iodine color number, start ([2]; Polymer P2 with stabilizer): 2.7
Iodine color number, 60 d 40° C. ([2]; Polymer P3 with stabilizer): 8.5
Iodine color number, start ([2]; Polymer P3 with stabilizer): 3.4
Iodine color number, 60 d 40° C. ([2]; Polymer P4 with stabilizer): 8.7
Iodine color number, start ([2]; Polymer P4 with stabilizer): 3.4
Iodine color number, 60 d 40° C. [2, 5]: 8.7
Iodine color number, start [2, 5]: 3.6
Iodine color number, 60 d 40° C. ([2]; Polymer P6 with stabilizer): 8.5
Iodine color number, start ([2]; Polymer P6 with stabilizer): 3.6
Iodine color number, 60 d 40° C. ([2]; Polymer P7 with stabilizer): 8.5
Iodine color number, start ([2]; Polymer P7 with stabilizer): 3.6
Iodine color number, 60 d 40° C. ([2]; Polymer P8 with stabilizer): 8.6
Iodine color number, start ([2]; Polymer P8 with stabilizer): 3.5
Iodine color number, 60 d 40° C. ([2]; Polymer P9 with stabilizer): 12.7
Iodine color number, start ([2]; Polymer P9 with stabilizer): 3.9
Start sample measurement, bact. assess., 4th inoculation ([3]; Polymer P1): − (slight growth, max. 100 colonies)
60 d 40° C., bact. assess., 4th inoculation ([3]; Polymer P1): +
Start sample measurement, bact. assess., 4th inoculation ([3]; Polymer P2): − (slight growth, max. 100 colonies)
60 d 40° C., bact. assess., 4th inoculation ([3]; Polymer P2): +
Start sample measurement, bact. assess., 4th inoculation ([3]; Polymer P3): − (slight growth, max. 100 colonies)
60 d 40° C., bact. assess., 4th inoculation ([3]; Polymer P3): +
60 d 40° C., bact. assess., 4th inoculation ([3]; Polymer P4): +
60 d 40° C., bact. assess., 4th inoculation ([3]; Polymer P5 (HP56)): +
60 d 40° C., bact. assess., 4th inoculation ([3]; Polymer P6): +
60 d 40° C., bact. assess., 4th inoculation ([3]; Polymer P7): +
Start sample measurement, bact. assess., 4th inoculation ([3]; Polymer P8): − (slight growth, max. 100 colonies)
60 d 40° C., bact. assess., 4th inoculation ([3]; Polymer P8): +
60 d 40° C., bact. assess., 4th inoculation ([3]; Polymer P9): +
60 d 40° C., yeast assess., 4th inoculation ([4]; Polymer P1): 0 (moderate growth, max. 400 colonies)
60 d 40° C., yeast assess., 4th inoculation ([4]; Polymer P2): +
60 d 40° C., yeast assess., 4th inoculation ([4]; Polymer P3): ++
60 d 40° C., yeast assess., 4th inoculation ([4]; Polymer P4): ++
60 d 40° C., yeast assess., 4th inoculation ([4]; Polymer P5 (HP56)): ++
60 d 40° C., yeast assess., 4th inoculation ([4]; Polymer P6): ++
60 d 40° C., yeast assess., 4th inoculation ([4]; Polymer P7): ++
60 d 40° C., yeast assess., 4th inoculation ([4]; Polymer P8): +
60 d 40° C., yeast assess., 4th inoculation ([4]; Polymer P9): ++
